In test [1] the test system is kappa opioid receptor (KOR). In words: GloSensor cAMP assay. The format is cell-based. In general terms: Changes in cAMP serve as a functional read-out for many G protein-coupled receptors.
Test [2] deals with kappa opioid receptor (KOR). In words: PathHunter β-arrestin recruitment assay in Drx-KOR cells. The format is cell-based. Particulars: dynorphin, various concentrations, 90 min at 37°C; Drx-KOR cells (Figure 5A). For orientation: Activated receptors often draw arrestin, which recruitment assays turn into a signal.
A further test relates to p38. In words: p38 activation. The format is cell-based, Chinese hamster. Conditions: western blot, ± SD, mean of 3 separate experiments (Figure 5D).
A further test deals with rats. Conditions: ref [11], cited from earlier work; for cocaine self-administration (drug intake): intra-VTA infusion, rats.

In the case of “Dynorphin A (1-17) (YGGFLRRIRPKLKWDNQ; Dynorphin A(1-17); UniProt P01213 207-223, looked up)”, the “KOR response to dynorphin (cAMP) on transfection and activation of 5HT2aR” value in test [1] (1 μM dynorphin, CHO-KOR + 5HT2aR, activated (Figure 1A)) is “does not affect the KOR response to dynorphin”. The “β-arrestin recruitment to KOR (luminescence)” value in test [2] is on record as “concentration-dependent increase in luminescence”. Besides, the “increase in phospho-p38/total p38” value with p38 (1 μM dynorphin, 15 min, CHO-KOR cells, relative to untreated) was determined as 1.76 ± 0.12 fold; in the test on p38 (CHO-KOR + HA-OX1R, 500 nM orexin 10 min prior to dynorphin, relative to untreated cells) it was 2.82 ± 0.36 fold.

As for `Cc1nc2ccc(NC(=O)Nc3ccnc4cccnc34)cc2o1` [SB-334867], in the test on rats, the “cocaine self-administration (drug intake)” value is “reduces cocaine self-administration in rats”.

As to `O=S(=O)(NCCNC/C=C/c1ccc(Br)cc1)c1cccc2cnccc12` [H89], the “effect of PKA inhibitor on OX1R attenuation of KOR Gαi signaling” value in test [1] (PKI or H89, 2 h, CHO-KOR + HA-OX1R, 500 nM orexin, 1 μM dynorphin (Figure 2B)) is on record as “did not affect OX1R attenuation of KOR Gαi signaling”.

Consider `Oc1ccc2c3c1O[C@H]1c4[nH]c5c(c4C[C@@]4(O)[C@@H](C2)N(CC2CC2)CC[C@]314)C[C@@]1(O)[C@H]2Cc3ccc(O)c4c3[C@@]1(CCN2CC1CC1)[C@H]5O4` [norBNI], for which the “cocaine self-administration (drug intake)” value in the test with rats is “has no effect on drug intake”. Moreover, the “effect on ability of SB-334867 to reduce drug intake” value with rats (norBNI with SB-334867, rats) was “blocks the ability of SB-334867 to reduce drug intake”.

(Values after article PMC5549559 (Cellular signalling, 2015).)
